Here are results for five compounds from patent publication US20230242582A1, “NOVEL ALPHA-HELICAL DOUBLE-SIDED CELL PENETRATING PEPTIDE AND USE THEREOF” (CAMP THERAPEUTICS INC., priority 2020, published 2023).

Positions of bridges follow the written chain, without caps; N, C: chain ends. Non-standard residues stand in square brackets, D forms with d. Residues, ends and D or L forms follow the SMILES beside them. Chains are numbered I, II in the order given. tBuAla = CC(C)(C)C[C@H](N)C(=O)O

One assay has as its system HeLa cells. Briefly: Cytotoxicity of dimeric peptides, WST-1 assay. The conditions noted are these: IC50 relative to LK-3, HeLa cells. The assay is classed as cell-based, human. As to the method:
Cytotoxicity was identified using WST-1 assay by treating HeLa cells with peptides in a 96-well plate (1×10^4 cells/well) for 24 hours.
Specifically, HeLa cells were cultured in DMEM at a condition of 37° C. with 5% CO2. The cells were respectively cultured in a cell culture plate, and then removed with trypsin. The cells were seeded at 1×10^4 cells per well in a 96-well plate. After 24 hours, the peptide was added to the media, and culture was performed again at a condition of 37° C. with 5% CO2 for 24 hours. 10 uL of WST-1 reagent was added per well, and reaction was allowed to proceed for 30 minutes at a condition of 37° C. with 5% CO2. Then, UV absorbance was measured at 450/700 nm with a 96-well plate reader.
(Tetrazolium assays rely on reduction of a dye to a coloured formazan, in cell work by metabolically active cells.)
Take `CC(=O)N[C@@H](CC(C)C)C(=O)N[C@@H](CCCCN)C(=O)N[C@@H](CCCCN)C(=O)N[C@@H](CC(C)C)C(=O)N[C@H]1CSSC[C@@H](C(=O)N[C@@H](CCCCN)C(=O)N[C@@H](CC(C)C)C(=O)N[C@@H](C)C(=O)NCC(N)=O)NC(=O)[C@H](CC(C)C)NC(=O)[C@H](CCCCN)NC(=O)[C@H](CCCCN)NC(=O)[C@H](CC(C)C)NC(=O)[C@H](CC(C)C)NC(=O)[C@H](CCCCN)NC(=O)[C@@H](NC(=O)[C@H](CC(C)C)NC(=O)[C@H](CCCCN)NC(=O)[C@H](CCCCN)NC(=O)[C@H](CC(C)C)NC(C)=O)CSSC[C@@H](C(=O)N[C@@H](CCCCN)C(=O)N[C@@H](CC(C)C)C(=O)N[C@@H](C)C(=O)NCC(N)=O)NC(=O)[C@H](CC(C)C)NC(=O)[C@H](CCCCN)NC(=O)[C@H](CCCCN)NC(=O)[C@H](CC(C)C)NC(=O)[C@H](CC(C)C)NC(=O)[C@H](CCCCN)NC1=O` [LK-3, reference compound] (HELM PEPTIDE1{[ac].L.K.K.L.C.K.L.L.K.K.L.C.K.L.A.G.[am]}|PEPTIDE2{[ac].L.K.K.L.C.K.L.L.K.K.L.C.K.L.A.G.[am]}$PEPTIDE1,PEPTIDE2,6:R3-13:R3|PEPTIDE1,PEPTIDE2,13:R3-6:R3$$$V2.0; bridges inferred): the ratio turned out to be 1.00.
Still for that read-out and setting: with `CC[C@H](C)[C@H](NC(C)=O)C(=O)N[C@H]1CSSC[C@@H](C(=O)N[C@@H](CCCCN)C(N)=O)NC(=O)[C@H]([C@@H](C)CC)NC(=O)[C@H](CCCCN)NC(=O)[C@H](CCCCN)NC(=O)[C@H]([C@@H](C)CC)NC(=O)[C@H]([C@@H](C)CC)NC(=O)[C@H](CCCCN)NC(=O)[C@@H](NC(=O)[C@@H](NC(C)=O)[C@@H](C)CC)CSSC[C@@H](C(=O)N[C@@H](CCCCN)C(N)=O)NC(=O)[C@H]([C@@H](C)CC)NC(=O)[C@H](CCCCN)NC(=O)[C@H](CCCCN)NC(=O)[C@H]([C@@H](C)CC)NC(=O)[C@H]([C@@H](C)CC)NC(=O)[C@H](CCCCN)NC1=O` [diIK10] (HELM PEPTIDE1{[ac].I.C.K.I.I.K.K.I.C.K.[am]}|PEPTIDE2{[ac].I.C.K.I.I.K.K.I.C.K.[am]}$PEPTIDE1,PEPTIDE2,3:R3-10:R3|PEPTIDE1,PEPTIDE2,10:R3-3:R3$$$V2.0; bridges inferred) the figure was 2.57.
Same read-out and setting: under `CC(=O)N[C@@H](CC(C)(C)C)C(=O)N[C@H]1CSSC[C@@H](C(=O)N[C@@H](CCCNC(=N)N)C(N)=O)NC(=O)[C@H](CC(C)(C)C)NC(=O)[C@H](CCCNC(=N)N)NC(=O)[C@H](CCCNC(=N)N)NC(=O)[C@H](CC(C)(C)C)NC(=O)[C@H](CC(C)(C)C)NC(=O)[C@H](CCCNC(=N)N)NC(=O)[C@@H](NC(=O)[C@H](CC(C)(C)C)NC(C)=O)CSSC[C@@H](C(=O)N[C@@H](CCCNC(=N)N)C(N)=O)NC(=O)[C@H](CC(C)(C)C)NC(=O)[C@H](CCCNC(=N)N)NC(=O)[C@H](CCCNC(=N)N)NC(=O)[C@H](CC(C)(C)C)NC(=O)[C@H](CC(C)(C)C)NC(=O)[C@H](CCCNC(=N)N)NC1=O` [diL*R10] (I: Ac-[tBuAla]CR[tBuAla][tBuAla]RR[tBuAla]CR-NH2 / II: Ac-[tBuAla]CR[tBuAla][tBuAla]RR[tBuAla]CR-NH2; disulfide I:2-II:9, I:9-II:2 (inferred)) stands 3.11; under `CC(=O)N[C@@H](CC(C)(C)C)C(=O)N[C@H]1CSSC[C@@H](C(=O)N[C@@H](CCCCN)C(N)=O)NC(=O)[C@H](CC(C)(C)C)NC(=O)[C@H](CCCCN)NC(=O)[C@H](CCCCN)NC(=O)[C@H](CC(C)(C)C)NC(=O)[C@H](CC(C)(C)C)NC(=O)[C@H](CCCCN)NC(=O)[C@@H](NC(=O)[C@H](CC(C)(C)C)NC(C)=O)CSSC[C@@H](C(=O)N[C@@H](CCCCN)C(N)=O)NC(=O)[C@H](CC(C)(C)C)NC(=O)[C@H](CCCCN)NC(=O)[C@H](CCCCN)NC(=O)[C@H](CC(C)(C)C)NC(=O)[C@H](CC(C)(C)C)NC(=O)[C@H](CCCCN)NC1=O` [diL*K10] (I: Ac-[tBuAla]CK[tBuAla][tBuAla]KK[tBuAla]CK-NH2 / II: Ac-[tBuAla]CK[tBuAla][tBuAla]KK[tBuAla]CK-NH2; disulfide I:2-II:9, I:9-II:2 (inferred)), 2.32.
Still for that read-out and setting: with `CC(=O)N[C@@H](Cc1ccccc1)C(=O)N[C@H]1CSSC[C@@H](C(=O)N[C@@H](CCCNC(=N)N)C(N)=O)NC(=O)[C@H](Cc2ccccc2)NC(=O)[C@H](CCCNC(=N)N)NC(=O)[C@H](CCCNC(=N)N)NC(=O)[C@H](Cc2ccccc2)NC(=O)[C@H](Cc2ccccc2)NC(=O)[C@H](CCCNC(=N)N)NC(=O)[C@@H](NC(=O)[C@H](Cc2ccccc2)NC(C)=O)CSSC[C@@H](C(=O)N[C@@H](CCCNC(=N)N)C(N)=O)NC(=O)[C@H](Cc2ccccc2)NC(=O)[C@H](CCCNC(=N)N)NC(=O)[C@H](CCCNC(=N)N)NC(=O)[C@H](Cc2ccccc2)NC(=O)[C@H](Cc2ccccc2)NC(=O)[C@H](CCCNC(=N)N)NC1=O` [diFR10] (HELM PEPTIDE1{[ac].F.C.R.F.F.R.R.F.C.R.[am]}|PEPTIDE2{[ac].F.C.R.F.F.R.R.F.C.R.[am]}$PEPTIDE1,PEPTIDE2,3:R3-10:R3|PEPTIDE1,PEPTIDE2,10:R3-3:R3$$$V2.0; bridges inferred) the figure was 4.10.

A further assay has as its system HeLa cells. Briefly: Cell-penetrating ability of fluorescently labeled dimeric peptides, flow cytometry. The format is cell-based, human. The conditions noted are these: at 62.5 nM, FIG. 6A. How it is done: During preparation of CPPs in dimeric form shown in Tables 1 to 3, one monomer thereof was prepared in a form where 5-TAMRA fluorescence was attached to the N-terminus, instead of acetyl. A monomer with acetyl and a monomer with 5-TAMRA fluorescence were mixed in a molar ratio of 1:1, and subjected to an oxidation condition in air to produce a dimeric form in which only one fluorescence was labeled per dimer molecule. Then, cell-penetrating ability of each dimer was identified. Each fluorescently labeled peptide was used to treat HeLa cells (5×10^4 cells/well), which are human-derived cells, and a ratio of the number of cells with fluorescence to the total number of cells was obtained through flow cytometry.
FIGS. 4B to 4D illustrate results obtained by treating cells with respective dimers at the same concentration (62.5 nM), measuring fluorescence intensity of the cells by flow cytometry, and relatively comparing the fluorescence intensity.
Based on cell-penetrating ability and cytotoxicity of the dimeric peptides of the present disclosure, correlation therebetween was identified. Cytotoxicity (IC50^−1) and cell-penetrating ability of the respective peptides were identified at 62.5 nM according to the methods described in Examples 5 and 6, and then graphically represented.
Background: A flow cytometer gives signals particle by particle.
As to `CC(=O)N[C@@H](CC(C)C)C(=O)N[C@@H](CCCCN)C(=O)N[C@@H](CCCCN)C(=O)N[C@@H](CC(C)C)C(=O)N[C@H]1CSSC[C@@H](C(=O)N[C@@H](CCCCN)C(=O)N[C@@H](CC(C)C)C(=O)N[C@@H](C)C(=O)NCC(N)=O)NC(=O)[C@H](CC(C)C)NC(=O)[C@H](CCCCN)NC(=O)[C@H](CCCCN)NC(=O)[C@H](CC(C)C)NC(=O)[C@H](CC(C)C)NC(=O)[C@H](CCCCN)NC(=O)[C@@H](NC(=O)[C@H](CC(C)C)NC(=O)[C@H](CCCCN)NC(=O)[C@H](CCCCN)NC(=O)[C@H](CC(C)C)NC(C)=O)CSSC[C@@H](C(=O)N[C@@H](CCCCN)C(=O)N[C@@H](CC(C)C)C(=O)N[C@@H](C)C(=O)NCC(N)=O)NC(=O)[C@H](CC(C)C)NC(=O)[C@H](CCCCN)NC(=O)[C@H](CCCCN)NC(=O)[C@H](CC(C)C)NC(=O)[C@H](CC(C)C)NC(=O)[C@H](CCCCN)NC1=O` [LK-3, reference compound] (HELM PEPTIDE1{[ac].L.K.K.L.C.K.L.L.K.K.L.C.K.L.A.G.[am]}|PEPTIDE2{[ac].L.K.K.L.C.K.L.L.K.K.L.C.K.L.A.G.[am]}$PEPTIDE1,PEPTIDE2,6:R3-13:R3|PEPTIDE1,PEPTIDE2,13:R3-6:R3$$$V2.0; bridges inferred), the “ratio of cell-penetrating ability to cytotoxicity (IC50^−1)” value is given as “about 130,000”.
Still for that read-out and setting: under `CC(=O)N[C@@H](Cc1ccccc1)C(=O)N[C@H]1CSSC[C@@H](C(=O)N[C@@H](CCCNC(=N)N)C(N)=O)NC(=O)[C@H](Cc2ccccc2)NC(=O)[C@H](CCCNC(=N)N)NC(=O)[C@H](CCCNC(=N)N)NC(=O)[C@H](Cc2ccccc2)NC(=O)[C@H](Cc2ccccc2)NC(=O)[C@H](CCCNC(=N)N)NC(=O)[C@@H](NC(=O)[C@H](Cc2ccccc2)NC(C)=O)CSSC[C@@H](C(=O)N[C@@H](CCCNC(=N)N)C(N)=O)NC(=O)[C@H](Cc2ccccc2)NC(=O)[C@H](CCCNC(=N)N)NC(=O)[C@H](CCCNC(=N)N)NC(=O)[C@H](Cc2ccccc2)NC(=O)[C@H](Cc2ccccc2)NC(=O)[C@H](CCCNC(=N)N)NC1=O` [diFR10] (HELM PEPTIDE1{[ac].F.C.R.F.F.R.R.F.C.R.[am]}|PEPTIDE2{[ac].F.C.R.F.F.R.R.F.C.R.[am]}$PEPTIDE1,PEPTIDE2,3:R3-10:R3|PEPTIDE1,PEPTIDE2,10:R3-3:R3$$$V2.0; bridges inferred) stands “low toxicity as compared with cell-penetrating ability”.
